Experimental findings from patent US20230091047A1 (priority 2019, published 2023) are described below.

Read-outs that look alike come from different tables or passages of the source.

The EC50 is the concentration at which the effect is half-maximal. Broadly, the CC50 is the concentration at which the toxic effect on the cells reaches its halfway point.

Data set [1] relates to HBV (HepG2.117 cell line, inducibly HBV producing). Put plainly: Anti-HBV activity: intracellular HBV DNA by real-time PCR in HepG2.117 cells after 3 days of treatment. The format is cell-based, hepatitis B virus. The method, boiled down: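 HepG2.117 cells replicate HBV under Tet-off control, without doxycycline. After induction of replication, cells were treated with serially diluted compound for 3 days, and intracellular HBV DNA was then quantified by real-time PCR with an HBV-specific primer set and probe.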
In general terms: In qPCR the cycle at which signal appears reflects the starting amount.

The next data set in a line: in vitro. The format is cell-based. The following applies: human, HepG2 or HepG2.117 cells, ATPlite, mean value. Put shortly:
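Luminescent ATP quantitation served as the viability endpoint following a 3- or 4-day incubation with test compounds.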
Background: Cellular ATP, detected with luciferase, serves as a proxy for viable cell number.

Setting [2] is: Hepatitis B virus, HepG2.117, 72 h, HepG2.117 cells, intracellular HBV DNA by real-time PCR, 3 days of treatment, mean value; read-out: EC50 (μM, mean value).
[3] abbreviates: 3-days incubation (not marked with *).
Where [4] appears, read: Hepatitis B virus, HepG2.117, 72 h, HepG2.117 cells, 3 days of treatment, intracellular HBV DNA by real-time PCR; mean value; read-out: EC50 (μM, mean value).
[5] abbreviates: 3-days incubation (unmarked values).

In the case of `COc1ccc(CN(c2nc3c(c(=O)n2-c2ccc(Br)cc2)C[C@@H](C)N(C(=O)c2ccc(Cl)c(Cl)c2)C3)C(C)C)c(OC)c1` [Compound C691], the EC50 in data set [1] (setting [2]) was found to be 2.45 µM. The CC50 at 3 days in the data set “in vitro” (setting [3]) is over 50 µM.

Regarding `CNC(=O)c1ccc(-n2c(NC34CC(C3)C4)nc3c(c2=O)C[C@@H](C)N(C(=O)c2ccc(Cl)c(Cl)c2)C3)cc1` [Compound C251, 4-[(6R)-2-[(bicyclo[1.1.1]pentan-1-yl)amino]-7-(3,4-dichlorobenzoyl)-6-methyl-4-oxo-5,6,7,8-tetrahydropyrido[3,4-d]pyrimidin-3(4H)-yl]-N-methylbenzamide], in data set [1] (setting [4]), the EC50 is 0.25 µM. The molecule further gave a CC50 at 3 days in the data set “in vitro” (setting [5]) of over 50 µM.

With `CNC(=O)c1ccc(-n2c(N(C)Cc3cn(C)nn3)nc3c(c2=O)C[C@@H](C)N(C(=O)c2ccc(Cl)c(Cl)c2)C3)cc1` [Compound C479], in data set [1] (setting [2]), the EC50 was 3.81 µM. The molecule further yielded a half-maximal cytotoxic concentration (CC50) at 3 days in “in vitro” (setting [3]) of over 50 µM.

Take `CNC(=O)c1ccc(-n2c(N[C@H](C)c3ccc4c(c3)OCO4)nc3c(c2=O)C[C@@H](C)N(C(=O)c2ccc(Cl)c(Cl)c2)C3)cc1` (single isomer, unassigned) [Compound C414a]: the half-maximal effective concentration (EC50) in data set [1] (setting [2]) stood at 0.29 µM. In addition, in “in vitro” (setting [3]), the cytotoxic concentration (CC50) at 3 days is over 50 µM.

As to `CNC(=O)c1ccc(-n2c(N3CCC[C@H]3C3CC3)nc3c(c2=O)C[C@@H](C)N(C(=O)c2ccc(Cl)c(Cl)c2)C3)cc1` (single isomer, unassigned) [Compound C353, 4-[(6R)-2-[(2*S)-2-cyclopropylpyrrolidin-1-yl]-7-(3,4-dichlorobenzoyl)-6-methyl-4-oxo-5,6,7,8-tetrahydropyrido[3,4-d]pyrimidin-3(4H)-yl]-N-methylbenzamide], in data set [1] (setting [4]), the EC50 is 0.11 µM. In the data set “in vitro” (setting [5]), this molecule showed a CC50 at 3 days of 19.5 µM.

With `CNC(=O)c1ccc(-n2c(NC(C)C)nc3c(c2=O)C[C@@H](C)N(C(=O)c2ccc(Br)c(F)c2C)C3)cc1` [Compound C581], in data set [1] (setting [2]), the EC50 was 0.15 µM. Further, the cytotoxic concentration (CC50) at 3 days in “in vitro” (setting [3]) is over 50 µM.

For `CNC(=O)c1cc(-n2c(N[C@@H](C)c3ccc(C(F)(F)F)cc3)nc3c(c2=O)C[C@@H](C)N(C(=O)c2ccc(Cl)c(Cl)c2)C3)nn1C` [Compound C623], the EC50 in data set [1] (setting [2]) was found to be 0.04 µM. This molecule also had a CC50 at 3 days in the data set “in vitro” (setting [3]) of over 50 µM.

Regarding `CNC(=O)OCC[C@@H](Nc1nc2c(c(=O)n1-c1ccc(C(=O)NC)cc1)C[C@@H](C)N(C(=O)c1ccc(Cl)c(Cl)c1)C2)C1CC1` (single isomer, unassigned) [Compound C256, (3*R)-3-cyclopropyl-3-({(6R)-7-(3,4-dichlorobenzoyl)-6-methyl-3-[4-(methylcarbamoyl)phenyl]-4-oxo-3,4,5,6,7,8-hexahydropyrido[3,4-d]pyrimidin-2-yl}amino)propyl methylcarbamate], the EC50 in data set [1] (setting [4]) came to 3.26 µM. For the same molecule, in “in vitro” (setting [5]), the CC50 at 3 days was over 50 µM.

With `CC(C)Nc1nc2c(c(=O)n1-c1ccc(S(C)(=O)=O)cc1)CCN(C(=O)c1cc3cc(F)ccc3[nH]1)C2` [Compound C136, 7-(5-fluoro-1H-indole-2-carbonyl)-3-[4-(methanesulfonyl)phenyl]-2-[(propan-2-yl)amino]-5,6,7,8-tetrahydropyrido[3,4-d]pyrimidin-4(3H)-one], in data set [1] (setting [4]), the EC50 was 0.24 µM. Also, the CC50 at 3 days in the data set “in vitro” (setting [5]) is over 50 µM.

With `CNC(=O)c1cc(Cl)c(-n2c(NC(C)C)nc3c(c2=O)C[C@@H](C)N(C(=O)c2ccc(Cl)c(Cl)c2)C3)cc1OC` [Compound C322, 5-chloro-4-[(6R)-7-(3,4-dichlorobenzoyl)-6-methyl-4-oxo-2-[(propan-2-yl)amino]-5,6,7,8-tetrahydropyrido[3,4-d]pyrimidin-3(4H)-yl]-2-methoxy-N-methylbenzamide], the EC50 in data set [1] (setting [4]) is 0.28 µM. The CC50 at 3 days in the data set “in vitro” (setting [5]) stood at 24.2 µM.

In the case of `CC(C)Nc1nc2c(c(=O)n1-c1ccc(C(=O)N3CCOCC3)cc1)C[C@@H](C)N(C(=O)c1ccc(Cl)c(C(F)F)c1)C2` [Compound C682], the half-maximal effective concentration (EC50) in data set [1] (setting [2]) turned out to be 0.12 µM. This molecule gave a cytotoxic concentration (CC50) at 3 days in the data set “in vitro” (setting [3]) of over 50 µM.

As to `CNC(=O)c1ccc(-n2c(NCc3nnc(C(C)C)[nH]3)nc3c(c2=O)C[C@@H](C)N(C(=O)c2ccc(Cl)c(Cl)c2)C3)cc1` [Compound C545], the concentration giving a half-maximal response (EC50) in data set [1] (setting [2]) was over 25 µM. Further, the 50% cytotoxic concentration (CC50) at 3 days in the data set “in vitro” (setting [3]) was over 50 µM.

With `CNC(=O)c1ccc(-n2c(NC3CC3)nc3c(c2=O)C[C@@H](C)N(C(=O)c2ccc(Cl)c(Cl)c2)C3)cc1` [Compound C329, 4-[(6R)-2-(cyclopropylamino)-7-(3,4-dichlorobenzoyl)-6-methyl-4-oxo-5,6,7,8-tetrahydropyrido[3,4-d]pyrimidin-3(4H)-yl]-N-methylbenzamide], in data set [1] (setting [4]), the half-maximal effective concentration (EC50) was found to be 0.55 µM. Also, the CC50 at 3 days in “in vitro” (setting [5]) was over 50 µM.

On to `CNC(=O)c1ccc(-n2c(N[C@H](C)c3cccc(OC)c3)nc3c(c2=O)C[C@@H](C)N(C(=O)c2ccc(Cl)c(Cl)c2)C3)cc1` (single isomer, unassigned) [Compound C394a], for which the EC50 in data set [1] (setting [2]) is 32.5 µM. The molecule also came in with a CC50 at 3 days in “in vitro” (setting [3]) of over 50 µM.

Take `CC(C)Nc1nc2c(c(=O)n1[C@H]1CC[C@H](C(=O)O)CC1)C[C@@H](C)N(C(=O)c1ccc(Cl)c(Cl)c1)C2` [Compound C254, trans-4-[(6R)-7-(3,4-dichlorobenzoyl)-6-methyl-4-oxo-2-[(propan-2-yl)amino]-5,6,7,8-tetrahydropyrido[3,4-d]pyrimidin-3(4H)-yl]cyclohexane-1-carboxylic acid]: the 50% effective concentration (EC50) in data set [1] (setting [4]) stood at 1.99 µM. The CC50 at 3 days in “in vitro” (setting [5]) is over 50 µM.

Consider `CNC(=O)c1cc(-n2c(NC(C)C)nc3c(c2=O)C[C@@H](C)N(C(=O)c2ccc(Cl)c(C(F)F)c2)C3)n(C)n1` [Compound C672], for which the half-maximal effective concentration (EC50) in data set [1] (setting [2]) is 0.09 µM. This molecule also displayed a cytotoxic concentration (CC50) at 3 days in the data set “in vitro” (setting [3]) of over 50 µM.

In the case of `COc1ccc(CNc2nc3c(c(=O)n2-c2ccccc2OC)C[C@H](C)N(C(=O)c2ccc(Cl)c(Cl)c2)C3)cc1` (single isomer, unassigned) [Compound C36Ab], the 50% effective concentration (EC50) in data set [1] (HepG2.117 cells, 3 days of treatment, intracellular HBV DNA by real-time PCR; mean value; read-out: EC50 (μM, mean value)) came to 2.12 µM. In addition, the CC50 at 3 days in the data set “in vitro” (setting [5]) was over 50 µM.

On to `COc1ccccc1-n1c(N[C@@H](C)CO)nc2c(c1=O)CCN(C(=O)c1ccc(Cl)c(Cl)c1)C2` (single isomer, unassigned) [Compound C62Ba, 7-(3,4-dichlorobenzoyl)-2-{[(2*S)-1-hydroxypropan-2-yl]amino}-3-(2-methoxyphenyl)-5,6,7,8-tetrahydropyrido[3,4-d]pyrimidin-4(3H)-one], for which the EC50 in data set [1] (setting [4]) is 3.65 µM. This molecule displayed a CC50 at 3 days in the data set “in vitro” (setting [5]) of over 50 µM.

Take `CNC(=O)c1ccc(-n2c(N[C@H](C)c3ccncc3)nc3c(c2=O)C[C@@H](C)N(C(=O)c2ccc(Cl)c(Cl)c2)C3)cc1` (single isomer, unassigned) [Compound C375a]: the concentration giving a half-maximal response (EC50) in data set [1] (setting [4]) came out at 3.19 µM. The same molecule yielded a CC50 at 3 days in the data set “in vitro” (setting [5]) of over 50 µM.

In the case of `CNC(=O)c1ccc(-n2c(OC(C)C)nc3c(c2=O)C[C@@H](C)N(C(=O)c2ccc(Cl)c(Cl)c2)C3)c(Cl)c1` [Compound C403a], the 50% effective concentration (EC50) in data set [1] (setting [2]) stood at 0.06 µM. In the data set “in vitro” (setting [3]), this molecule had a cytotoxic concentration (CC50) at 3 days of 36.7 µM.

As to `CNC(=O)c1ccc(-n2c(NC(C)C)nc3c(c2=O)C[C@@H](C)N(C(=O)c2cc4cc(Br)ccc4s2)C3)cc1` [Compound C583], in data set [1] (setting [2]), the EC50 stood at 0.21 µM. Moreover, the CC50 at 3 days in “in vitro” (setting [3]) is over 50 µM.

Turning to `CC(C)Nc1nc2c(c(=O)n1-c1ccc(S(C)(=O)=O)cc1)CCN(C(=O)c1ccc3c(c1)CCO3)C2` [Compound C155, 7-(2,3-dihydro-1-benzofuran-5-carbonyl)-3-[4-(methanesulfonyl)phenyl]-2-[(propan-2-yl)amino]-5,6,7,8-tetrahydropyrido[3,4-d]pyrimidin-4(3H)-one], the EC50 in data set [1] (setting [4]) amounted to 5.29 µM. The molecule further came in with a CC50 at 3 days in “in vitro” (setting [5]) of over 50 µM.

With `COC(=O)c1ccc(-n2c(NC(C)C)nc3c(c2=O)C[C@@H](C)N(C(=O)c2ccc(Cl)c(Cl)c2)C3)cn1` [Compound C226], the EC50 in data set [1] (setting [4]) is 2.3 µM. Further, the CC50 at 3 days in the data set “in vitro” (setting [5]) is over 50 µM.

For the molecule `CNC(=O)c1noc2cc(-n3c(NC(C)C)nc4c(c3=O)C[C@@H](C)N(C(=O)c3ccc(Cl)c(Cl)c3)C4)ccc12` [Compound C638], in data set [1] (setting [2]), the EC50 came to 0.14 µM. In the data set “in vitro” (setting [3]), the CC50 at 3 days was over 50 µM.

Regarding `CC(C)Nc1nc2c(c(=O)n1-c1ccc(N3CC[C@@H](O)C3)cc1)C[C@@H](C)N(C(=O)c1ccc(Cl)c(Cl)c1)C2` [Compound C201, (6R)-7-(3,4-dichlorobenzoyl)-3-{4-[(3R)-3-hydroxypyrrolidin-1-yl]phenyl}-6-methyl-2-[(propan-2-yl)amino]-5,6,7,8-tetrahydropyrido[3,4-d]pyrimidin-4(3H)-one], in data set [1] (setting [4]), the EC50 was 0.2 µM. In addition, in the data set “in vitro” (setting [5]), it took 36.8 µM to reach half-maximal cytotoxicity (CC50 at 3 days).

Regarding `CNC(=O)c1ccc(-n2c(NC(C)C)nc3c(c2=O)C[C@@H](C)N(C(=O)c2cc(Cl)c(Cl)cc2OC)C3)cc1` [Compound C590], the 50% effective concentration (EC50) in data set [1] (setting [2]) is 12.4 µM. The molecule further gave a CC50 at 3 days in the data set “in vitro” (setting [3]) of over 50 µM.

On to `COc1ccccc1-n1c(NC2CCCC2)nc2c(c1=O)CCN(C(=O)c1ccc(Cl)c(Cl)c1)C2` [Compound C45, 2-(cyclopentylamino)-7-(3,4-dichlorobenzoyl)-3-(2-methoxyphenyl)-5,6,7,8-tetrahydropyrido[3,4-d]pyrimidin-4(3H)-one], for which the concentration giving a half-maximal response (EC50) in data set [1] (setting [4]) came out at 6.62 µM. Moreover, in the data set “in vitro” (setting [5]), the half-maximal cytotoxic concentration (CC50) at 3 days turned out to be 27.2 µM.

On to `CC(C)Nc1nc2c(c(=O)n1-c1ccc(S(C)(=O)=O)cc1)CC(c1ccc(F)cc1)N(C(=O)c1ccc(Cl)c(Cl)c1)C2` (centres unmarked) [Compound C110, 7-(3,4-dichlorobenzoyl)-6-(4-fluorophenyl)-3-[4-(methanesulfonyl)phenyl]-2-[(propan-2-yl)amino]-5,6,7,8-tetrahydropyrido[3,4-d]pyrimidin-4(3H)-one], for which the EC50 in data set [1] (setting [4]) is over 50 µM. This molecule also registered a half-maximal cytotoxic concentration (CC50) at 3 days in “in vitro” (setting [5]) of over 50 µM.
